Reference: patent publication US11291651B2, “Glycopyrrolate salts” (Journey Medical Corporation, priority 2013, dated 2022)

Assays:
[1] = exposed to standard atmospheric conditions
Text: In addition, the extremely low glass transition renders the amorphous form of glycopyrrolate challenging to formulate successfully.

[2] = glass transition temperature by modulated DSC; assay type: physicochemical; settings: amorphous solid
Protocol: DSC was performed using a TA Instruments 2920 differential scanning calorimeter. Temperature calibration was performed using NIST-traceable indium metal. The sample was placed into an aluminum DSC pan, covered with a lid, and the weight was accurately recorded. A weighed aluminum pan configured as the sample pan was placed on the reference side of the cell. Modulated DSC data (see, e.g., FIG. 23) were obtained on a TA Instruments Q2000 differential scanning calorimeter equipped with a refrigerated cooling system (RCS). Temperature calibration was performed using NIST-traceable indium metal. The sample was placed into an aluminum DSC pan, and the weight was accurately recorded. The pan was covered with a lid perforated with a laser pinhole, and the lid was hermetically sealed. A weighed, crimped aluminum pan was placed on the reference side of the cell. Data were obtained using a modulation amplitude of ±1° C. and a 60 second period with an underlying heating rate of 2° C./minute from −50 to 220° C. The reported glass transition temperatures are obtained from the inflection point of the step change in the reversing heat flow versus temperature curve.

hyperhidrosis = settings: topically applied; compared with aluminum chloride; cited from earlier work
[3] = tested on: patients suffering from hyperhidrosis; test: study in patients suffering from hyperhidrosis treated with 2% and 4% glycopyrrolate formulations; assay type: in vivo
Text: (§1) By topical, what is meant is a material or formulation comprising or containing glycopyrrolate tosylate which may be used to deliver glycopyrrolate tosylate, including a pharmaceutically effective amount of glycopyrrolate tosylate, to a patient. In many embodiments, the glycopyrrolate tosylate is threo glycopyrrolate tosylate. Examples of a topical include, but are not limited to, solutions, ointments, gels, lotions, powders, sprays, creams, cream bases, patches, pastes, washes, dressings, masks, gauzes, bandages, swabs, brushes, or pads. The application of the topical may be controlled by controlling the dose amount or the rate of release. The dose may be controlled by dissolving or dispensing threo glycopyrrolate tosylate, for example, in the appropriate medium. These and other dose controlling formulations may be used to deliver controlled doses such as specific unit doses, metered doses, or multiple doses from the topical.

[4] = molecular target: M3 muscarinic acetylcholine receptor (Homo sapiens, UniProt P20309); test: binding affinity for the M3 muscarinic acetylcholine receptor in vitro; settings: glycopyrronium delivered as bromide or tosylate salt
Text: as §1, with “Such dose dependency is consistent with glycopyrrolate's anti-muscarinic activity. Accordingly, glycopyrrolate tosylate may also be used to treat hyperhidrosis in patients such as by administering a topical containing glycopyrrolate tosylate. By” for “By”

Chain of M3 muscarinic acetylcholine receptor (P20309 whole entry): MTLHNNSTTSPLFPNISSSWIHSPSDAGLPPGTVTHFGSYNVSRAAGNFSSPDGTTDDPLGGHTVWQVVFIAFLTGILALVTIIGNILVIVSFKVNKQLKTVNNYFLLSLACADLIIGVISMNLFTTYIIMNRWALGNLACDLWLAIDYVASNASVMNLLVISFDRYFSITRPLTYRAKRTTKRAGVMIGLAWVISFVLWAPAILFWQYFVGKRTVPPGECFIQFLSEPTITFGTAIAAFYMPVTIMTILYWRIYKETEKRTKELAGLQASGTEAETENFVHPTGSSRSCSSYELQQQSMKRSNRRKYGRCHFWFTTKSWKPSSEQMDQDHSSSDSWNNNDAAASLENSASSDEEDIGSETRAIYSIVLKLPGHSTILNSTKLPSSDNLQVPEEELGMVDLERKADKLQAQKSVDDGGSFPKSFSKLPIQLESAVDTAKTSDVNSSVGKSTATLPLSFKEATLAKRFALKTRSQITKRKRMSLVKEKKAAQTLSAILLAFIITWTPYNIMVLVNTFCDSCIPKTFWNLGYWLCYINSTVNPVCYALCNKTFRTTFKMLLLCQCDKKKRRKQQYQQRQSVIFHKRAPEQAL

Row | SMILES | hygroscopicity [1] | onset of the glass transition temperature [2] | effectiveness (hyperhidrosis) | efficacy responses ([3]; 2% and 4% glycopyrrolate formulations) | axillary sweating ([3]; formulations containing 2% and 4% glycopyrrolate based on a glycopyrrolate bromide preparation) | binding affinity for the M3 muscarinic acetylcholine receptor [4]
1 | C[N+]1(C)CCC(OC(=O)C(O)(c2ccccc2)C2CCCC2)C1.Cc1ccc(S(=O)(=O)[O-])cc1.O (stereo not drawn) [amorphous glycopyrrolate tosylate] | extremely hygroscopic which deliquesced readily | 11.6 °C |  |  |  | 
2 | C[N+]1(C)CCC(OC(=O)C(O)(c2ccccc2)C2CCCC2)C1 (stereo not drawn) [glycopyrrolate bromide, glycopyrronium bromide] |  |  | increased effectiveness | dose dependent trend | reduced | equivalent binding affinity
